“And” between values parts separate entries of the source, which are not always exact repeats. Equal entries are not always repeated. Where two headings read alike, the source gives them in different places.
What was measured:
GCN5 = GCN5 (Homo sapiens, UniProt Q92830); assay: In vitro HAT assay, GCN5; assay type: biochemical
Experimental: (§1) Assays were performed in quadruplicate.

p300 = target: T1, p300 (Homo sapiens, UniProt Q09472); assay: In vitro HAT assay, p300; assay type: biochemical; conditions: individual IC50 values
T1 sequence (Q09472 1287-1663 limits assumed): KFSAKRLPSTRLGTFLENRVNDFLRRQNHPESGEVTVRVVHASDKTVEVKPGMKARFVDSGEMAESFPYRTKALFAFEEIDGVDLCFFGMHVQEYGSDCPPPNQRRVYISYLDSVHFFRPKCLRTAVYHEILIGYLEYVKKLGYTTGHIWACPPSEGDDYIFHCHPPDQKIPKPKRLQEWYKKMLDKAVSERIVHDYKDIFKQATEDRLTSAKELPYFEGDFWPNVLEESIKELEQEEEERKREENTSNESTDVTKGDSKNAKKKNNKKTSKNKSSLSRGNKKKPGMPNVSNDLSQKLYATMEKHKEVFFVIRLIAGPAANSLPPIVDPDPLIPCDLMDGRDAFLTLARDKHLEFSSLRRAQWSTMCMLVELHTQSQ
Experimental: as §1
(§2) Purification of recombinant HAT enzymes (GST-tagged)- Expression constructs, pGEX-p300 and pGEX-PCAF, obtained from Dr Andrew Bannister (Cambridge Cancer Centre, UK), were transformed into XA90 Escherichia coli cells. A single colony was selected and grown to an OD 0.5 IPTG (1 mM) induction was carried out for 4 hours then cell pellets were collected, lysed, and sonicated. Supernatants were then passed through glutathione Sepharose 4B (GE Healthcare) and purified protein was eluted with 50 mM Tris-HCl, 10 mM reduced glutathione, pH 8. Eluted fractions were tested for enzymatic activity by HAT assay.

PCAF = target: T2, PCAF (Homo sapiens, UniProt Q92831); assay: In vitro HAT assay, PCAF; assay type: biochemical; conditions: individual IC50 values
T2 construct: GST; made in house; host or cells: XA90 Escherichia coli
T2 sequence (Q92831 whole entry, species assumed): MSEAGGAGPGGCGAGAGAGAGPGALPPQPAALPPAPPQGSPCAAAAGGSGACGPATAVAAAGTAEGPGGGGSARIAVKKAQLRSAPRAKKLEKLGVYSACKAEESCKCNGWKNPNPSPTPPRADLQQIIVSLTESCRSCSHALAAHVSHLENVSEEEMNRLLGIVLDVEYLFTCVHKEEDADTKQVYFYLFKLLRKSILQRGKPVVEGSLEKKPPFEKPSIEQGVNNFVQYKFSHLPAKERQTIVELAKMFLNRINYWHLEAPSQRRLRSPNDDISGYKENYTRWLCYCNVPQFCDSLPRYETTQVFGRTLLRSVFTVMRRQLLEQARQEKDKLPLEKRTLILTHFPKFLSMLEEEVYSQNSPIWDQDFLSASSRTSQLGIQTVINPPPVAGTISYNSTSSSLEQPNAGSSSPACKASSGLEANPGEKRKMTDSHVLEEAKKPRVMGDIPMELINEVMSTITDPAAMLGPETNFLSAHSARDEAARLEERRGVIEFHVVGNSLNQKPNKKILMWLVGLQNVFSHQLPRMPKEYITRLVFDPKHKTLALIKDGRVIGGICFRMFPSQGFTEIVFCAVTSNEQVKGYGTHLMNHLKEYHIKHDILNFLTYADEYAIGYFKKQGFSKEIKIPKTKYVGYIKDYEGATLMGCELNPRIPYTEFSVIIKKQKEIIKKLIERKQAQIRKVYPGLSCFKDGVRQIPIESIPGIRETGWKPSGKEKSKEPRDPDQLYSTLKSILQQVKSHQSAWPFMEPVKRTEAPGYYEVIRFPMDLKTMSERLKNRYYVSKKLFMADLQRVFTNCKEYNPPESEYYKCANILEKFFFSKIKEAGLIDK
Experimental: as §1, §2

Tip60 = Tip60 (Homo sapiens, UniProt Q92993); assay: In vitro HAT assay, Tip60; conditions: for inhibition at 100 µM: read-out: Tip60 % inhibition at 100 µM; for Tip60 inhibitory activity (in words): in vitro HAT assay
Tip60, sequence (Q92993 whole entry): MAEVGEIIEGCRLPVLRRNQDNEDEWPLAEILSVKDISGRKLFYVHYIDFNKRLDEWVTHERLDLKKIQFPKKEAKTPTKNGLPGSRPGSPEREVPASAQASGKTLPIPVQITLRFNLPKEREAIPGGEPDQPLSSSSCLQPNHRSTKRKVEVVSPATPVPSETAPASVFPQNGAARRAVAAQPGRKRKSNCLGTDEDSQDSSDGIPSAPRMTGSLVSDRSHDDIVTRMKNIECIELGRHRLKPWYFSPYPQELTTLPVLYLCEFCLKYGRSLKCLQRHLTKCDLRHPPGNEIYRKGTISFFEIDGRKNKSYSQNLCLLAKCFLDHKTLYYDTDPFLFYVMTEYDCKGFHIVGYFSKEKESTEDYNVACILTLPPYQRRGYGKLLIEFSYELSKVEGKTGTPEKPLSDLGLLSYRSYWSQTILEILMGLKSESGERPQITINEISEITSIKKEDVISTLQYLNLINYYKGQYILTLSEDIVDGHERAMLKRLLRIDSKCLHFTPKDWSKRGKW

[1] = tested on: acetylated histone H4K16, H3K14 and H4K8 in LNCaP cells; assay: Western blotting of histone acetylation in LNCaP cells; conditions: Western blot
[2] = tested on: Tip60 levels in LNCaP cells; assay type: cell-based; conditions: increasing concentrations, 24 hours, Western blot
Description: Representative blots are shown for duplicate experiments.

GCN5, sequence (Q92830 whole entry, species assumed): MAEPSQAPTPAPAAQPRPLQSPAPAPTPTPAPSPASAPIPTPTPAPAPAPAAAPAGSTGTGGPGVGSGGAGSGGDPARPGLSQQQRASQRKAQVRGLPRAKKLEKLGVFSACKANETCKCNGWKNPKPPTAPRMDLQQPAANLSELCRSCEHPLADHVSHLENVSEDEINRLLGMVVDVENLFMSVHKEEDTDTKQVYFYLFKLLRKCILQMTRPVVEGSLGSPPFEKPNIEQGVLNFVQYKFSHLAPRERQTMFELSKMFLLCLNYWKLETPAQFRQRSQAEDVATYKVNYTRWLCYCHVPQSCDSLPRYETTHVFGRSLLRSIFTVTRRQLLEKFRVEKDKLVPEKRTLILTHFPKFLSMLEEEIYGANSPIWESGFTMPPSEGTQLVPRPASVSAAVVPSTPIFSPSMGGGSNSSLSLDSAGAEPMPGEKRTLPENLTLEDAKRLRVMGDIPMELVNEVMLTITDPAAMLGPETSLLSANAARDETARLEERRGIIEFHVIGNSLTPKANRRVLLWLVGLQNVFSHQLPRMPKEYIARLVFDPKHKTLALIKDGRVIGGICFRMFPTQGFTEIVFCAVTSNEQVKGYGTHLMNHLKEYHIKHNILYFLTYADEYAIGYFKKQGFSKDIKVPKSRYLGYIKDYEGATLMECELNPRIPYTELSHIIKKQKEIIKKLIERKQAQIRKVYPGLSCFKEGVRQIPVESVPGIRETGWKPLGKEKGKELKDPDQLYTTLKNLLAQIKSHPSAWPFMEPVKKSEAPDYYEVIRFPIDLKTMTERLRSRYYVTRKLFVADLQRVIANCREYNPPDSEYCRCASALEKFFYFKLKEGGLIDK

Q: Which results are given for `Cc1cnsc1SSc1sncc1C` [Compound 5, 1,2-Bis(4-methylisothiazol-5-yl)disulfane]?
A: IC50 (GCN5): > 100 µM; IC50 (p300): 58 µM and 43 µM; IC50 (PCAF): 33 µM and 25 µM; IC50 (Tip60): 4 µM

Q: With `c1cc(CCc2ccncc2)ccn1` [1,2-bis(4-pyridyl)ethane] as the compound, how does the “levels of acetylated histone H4K16, H3K14 and H4K8” value ([1]; increasing concentrations for 2 hours, then TSA 2 µM for a further 4 hours) read?
A: did not affect

Q: What about the Tip60 levels [2] of the same compound?
A: unaffected

Q: How did the IC50 (Tip60) turn out when `c1cc(SSc2ccncc2)ccn1` [4,4′-Dithiodipyridine] was run?
A: 48 µM

Q: Which “acetylation at H4K8, H4K16 and H3K14” value ([1]; TSA alone 2 µM, 6 hours) does the source give for `CC(/C=C/C(=O)NO)=C\[C@@H](C)C(=O)c1ccc(N(C)C)cc1` [TSA, trichostatin A] here?
A: acetylation was increased

Q: For `c1ccc2sc(SSc3nc4ccccc4s3)nc2c1` [2,2′-Dithio(bis)benzothiazole], which inhibition at 100 µM (Tip60) is on record?
A: 25%

Q: With `N#CSc1ccns1` [Compound 6, 5-Thiocyanatoisothiazole] as the compound, how does the inhibition at 100 µM (Tip60) read?
A: 27%

Q: How did the inhibition at 100 µM (Tip60) turn out when `Cc1cnsc1` [Compound 11, 4-Methylisothiazole] was run?
A: 22%

Q: For `Cc1ccsc1Br` [2-Bromo-3-methylthiophene], which IC50 (Tip60) is on record?
A: > 100 µM

Q: And the “Tip60 inhibitory activity (in words)” value (Tip60)?
A: inactive

Q: How did the inhibition at 100 µM (Tip60) turn out when `Cc1cnsc1SC#N` [Compound 4, 4-Methyl-5-thiocyanatoisothiazole] was run?
A: 46%

Q: `c1ccc(SSc2ccccc2)cc1` [Diphenyl disulphide] was tested. Which inhibition at 100 µM (Tip60) did it give?
A: 4%

Q: For `c1ccc(SSc2ccccn2)nc1` [2,2′-Dithiodipyridine], which IC50 (Tip60; Tip60 IC50, in vitro HAT assay, 3H acetyl-CoA, histones as substrates, individual IC50 values) is on record?
A: 62 µM and 87 µM

Q: `Cc1cnsc1Br` [Compound 1, 4-Methyl-5-bromoisothiazole] was tested. Which “Tip60 inhibitory activity (in words)” value (Tip60) did it give?
A: inactive

Q: What about the inhibition at 100 µM (Tip60) of the same compound?
A: 14%
